According to patent US5227153A, “Use of 4-(2-oxo-3-bornylidenemethyl)benzenesulfphonic acid or its salts for the protection of hair against environmental attacking agents, and in particular against light, and process for the protection of hair using this compound” (L'Oreal, priority 1988, dated 1993):

Assays:
[1] = 15% wet extension level of bleached hair after exposure to light (SUNTEST HANAU xenon apparatus)
Description: (§1) The 15% extension level is the weight to be applied to wet hair of given length to extend it by 15%. The higher the weight, the stronger and more elastic the hair.
This composition is applied to bleached hair, then rinsed. The hair is then exposed to the Suntest by means of a "SUNTEST HANAU" apparatus for 120 hours. This apparatus consists of a xenon light emitter and a system of filters producing a radiation corresponding to a very large extend to solar radiation. The energy radiation is about 585 W/m^2 in the wavelength range between 300 and 830 nm (overall radiation).
After applying this foam to bleached hair three times and without consecutive rinsing, the hair is exposed to the Suntest as described in Example 1 for 180 hours.
Bleached hair treated with one application of this spray and not rinsed is then exposed to the Suntest under the conditions described in Example 1 for 120 hours.
Bleached hair treated with one application of this gel and not rinsed is then exposed to the Suntest under the conditions described in Example 1 for 120 hours.

[2] = Mechanical properties of hair after exposure in natural light and artificial xenon light; settings: natural light (sunny environment) and artificial light (xenon, SUNTEST HANAU)
Description: as §1
It has been possible to reveal this property by exposure in natural light (sunny environment) and artificial light (xenon light emitter in a SUNTEST HANAU type accelerated aging apparatus).

## CC12CCC(C(=Cc3ccc(S(=O)(=O)O)cc3)C1=O)C2(C)C (centres unmarked) [4-(2-oxo-3-bornylidenemethyl)benzenesulphonic acid]
[1]; rinse composition with 5 g per 100 g of the acid, rinsed, Suntest 120 hours, compared to same rinse containing no acid
  improvement in the mean value of the 15% wet extension level: very significantly improved
[1]; styling foam with 1.5 g per 100 g of the acid (90 g composition + 10 g propellant), applied three times, not rinsed, Suntest 180 hours, compared to same foam containing no acid
  improvement in the mean value of the 15% wet extension level: appreciable improvement
[1]; styling gel with 0.4 g per 100 g of the acid, one application, not rinsed, Suntest 120 hours, compared to same gel without the acid
  improvement in the mean value of the 15% wet extension level: appreciable improvement
[1]; styling spray with 1 g per 100 g of the acid, one application, not rinsed, Suntest 120 hours, compared to same spray containing no acid
  improvement in the mean value of the 15% wet extension level: significant improvement
[2]
  preservation of the mechanical properties of hair from degradation by light: can preserve the mechanical properties of hair
